Reference: ChEMBL document CHEMBL1201862, “PubChem BioAssay data set” (2004)
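Following 48 hours of exposure in 96-well plates, responses at five concentrations were used to interpolate endpoints linearly. Abbreviation: GI50, concentration required for 50% inhibition of growth.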 Activity calls are given as the source filed them. Rule as the data show it: active = GI50 up to about 1.1 µM and inactive = higher.

Tests used:
Assay in all cases: NCI anticancer screen, dose series, 48 h
SNB-75 = test system: SNB-75
CAKI-1 = test system: CAKI-1
MDA-N = test system: MDA-N
SNB-19 = test system: SNB-19
NCI-H522 = test system: NCI-H522
NCI-H460 = test system: NCI-H460
HL-60 = test system: HL-60
SF-295 = test system: SF-295
U-251 = test system: U-251
MDA-MB-231 = test system: MDA-MB-231
HCC 2998 = test system: HCC 2998
NCI-H226 = test system: NCI-H226
MDA-MB-435 = test system: MDA-MB-435
HCT-15 = test system: HCT-15
IGROV-1 = test system: IGROV-1
MCF7 = test system: MCF7
OVCAR-3 = test system: OVCAR-3
RXF 393 = test system: RXF 393
OVCAR-5 = test system: OVCAR-5
COLO 205 = test system: COLO 205

Row | SMILES | GI50 (SNB-75) | GI50 (CAKI-1) | GI50 (MDA-N) | GI50 (SNB-19) | GI50 (NCI-H522) | GI50 (NCI-H460) | GI50 (HL-60) | GI50 (SF-295) | GI50 (U-251) | GI50 (MDA-MB-231) | GI50 (HCC 2998) | GI50 (NCI-H226) | GI50 (MDA-MB-435) | GI50 (HCT-15) | GI50 (IGROV-1) | GI50 (MCF7) | GI50 (OVCAR-3) | GI50 (RXF 393) | GI50 (OVCAR-5) | GI50 (COLO 205)
1 | O=C(NCCNCCNC(=O)c1cc(-c2ccccc2)nc2ccccc12)c1cc(-c2ccccc2)nc2ccccc12 | 1.92 µM (inactive) | 9.79 µM (inactive) | 1.67 µM (inactive) | 3.21 µM (inactive) | 1.93 µM (inactive) | 1.5 µM (inactive) | 1.87 µM (inactive) | 1.67 µM (inactive) | 2.08 µM (inactive) | 2.51 µM (inactive) | 1.73 µM (inactive) | 2.91 µM (inactive) | 1.82 µM (inactive) | 2.92 µM | 2.52 µM (inactive) | 1.78 µM (inactive) | 2.24 µM (inactive) | 1.67 µM (inactive) | 2.17 µM (inactive) | 1.98 µM (inactive)
2 | CC1CC[C@@]2(OC1)OC1C[C@H]3[C@@H]4CC[C@H]5CC(OC6OC(CO)C(OC7OC(CO)C(O)C(O)C7OC7OC(CO)C(O)C(O)C7O)C(O)C6O)CCC5(C)[C@H]4CCC3(C)C1[C@@H]2C (some centres not stated) | 2.59 µM (inactive) | 3.21 µM (inactive) | 2.86 µM (inactive) | 3.37 µM (inactive) | 1.63 µM (inactive) | 3.08 µM (inactive) | 4.97 µM (inactive) | 4.26 µM (inactive) | 1.1 µM (active) | 0.929 µM (active) | 1.04 µM (active) | 1.34 µM (inactive) | 2.65 µM (inactive) | 10.3 µM | 1.04 µM (active) | 1.01 µM (active) | 1.8 µM (inactive) | 1.05 µM (active) | 2.25 µM (inactive) | 0.955 µM (active)
3 | CCCC1CC(=O)NC(=O)C1C(=O)OC(C)(C)C (configuration not stated) | > 100 µM (inactive) | > 100 µM (inactive) | > 100 µM (inactive) | > 100 µM (inactive) | > 100 µM (inactive) | > 100 µM (inactive) | > 100 µM (inactive) | > 100 µM (inactive) | > 100 µM (inactive) | > 100 µM (inactive) | > 100 µM (inactive) | > 100 µM (inactive) | > 100 µM (inactive) | > 100 µM | > 100 µM (inactive) | > 100 µM (inactive) | > 100 µM (inactive) | > 100 µM (inactive) | > 100 µM (inactive) | > 100 µM (inactive)
4 | CCOc1cc2c(NCCCN(CCO)CCO)ncnc2c(OCC)c1OCC | > 74.8 µM (inactive) | > 100 µM (inactive) | > 100 µM (inactive) | > 100 µM (inactive) | > 100 µM (inactive) | > 100 µM (inactive) | > 89.1 µM (inactive) | > 100 µM (inactive) | > 100 µM (inactive) | > 93.1 µM (inactive) | 22 µM (inactive) | 21.7 µM (inactive) | > 100 µM (inactive) | > 100 µM | > 100 µM (inactive) | > 100 µM (inactive) | > 100 µM (inactive) | > 82 µM (inactive) | > 100 µM (inactive) | 69.3 µM (inactive)
5 | Cc1c2ccccc2cc2nc3ccccc3n12 | > 10 µM (inactive) | > 10 µM (inactive) | > 10 µM (inactive) | > 10 µM (inactive) | > 10 µM (inactive) | > 10 µM (inactive) | > 10 µM (inactive) | > 10 µM (inactive) | > 10 µM (inactive) | > 10 µM (inactive) | > 10 µM (inactive) | > 10 µM (inactive) | > 10 µM (inactive) | > 10 µM | > 10 µM (inactive) | > 10 µM (inactive) | > 10 µM (inactive) | > 10 µM (inactive) | > 10 µM (inactive) | > 10 µM (inactive)
6 | COc1ccc(C(=O)c2[nH]c(Nc3ccc(Cl)cc3)c(C(=S)Nc3ccccc3)c2N)cc1 | 44 µM (inactive) | > 100 µM (inactive) | > 100 µM (inactive) | > 100 µM (inactive) | > 100 µM (inactive) | > 100 µM (inactive) | > 100 µM (inactive) | > 100 µM (inactive) | – | > 100 µM (inactive) | > 100 µM (inactive) | 47 µM (inactive) | > 100 µM (inactive) | > 100 µM | > 100 µM (inactive) | 70.5 µM (inactive) | > 100 µM (inactive) | > 100 µM (inactive) | > 100 µM (inactive) | > 100 µM (inactive)
7 | COc1cc(/C=N/n2c(-c3ccccc3)n[nH]c2=O)cc(OC)c1OC | 2.48 µM (inactive) | 1.1 µM (active) | 0.174 µM (active) | 6.37 µM (inactive) | 0.675 µM (active) | 0.826 µM (active) | 0.518 µM (active) | 0.745 µM (active) | 3.93 µM (inactive) | 19.2 µM (inactive) | > 100 µM (inactive) | > 41.3 µM (inactive) | 0.218 µM (active) | 0.708 µM | 2.43 µM (inactive) | 1.3 µM (inactive) | 4.63 µM (inactive) | 4.94 µM (inactive) | 22.4 µM (inactive) | –
8 | O=C(O)c1ccc(S(=O)(=O)c2ccccc2[N+](=O)[O-])cc1 | > 10 µM (inactive) | > 10 µM (inactive) | > 10 µM (inactive) | > 10 µM (inactive) | > 10 µM (inactive) | > 10 µM (inactive) | > 10 µM (inactive) | > 10 µM (inactive) | > 10 µM (inactive) | > 10 µM (inactive) | > 10 µM (inactive) | > 10 µM (inactive) | > 10 µM (inactive) | > 10 µM | > 10 µM (inactive) | > 10 µM (inactive) | > 10 µM (inactive) | > 10 µM (inactive) | > 10 µM (inactive) | > 10 µM (inactive)
9 | O=C1Nc2c(Cl)cc(Cl)cc2/C1=N/Nc1ccccc1[N+](=O)[O-] | 4.28 µM (inactive) | 39.4 µM (inactive) | > 100 µM (inactive) | 23.7 µM (inactive) | 35.2 µM (inactive) | 54.5 µM (inactive) | 16.6 µM (inactive) | 11.7 µM (inactive) | 6.85 µM (inactive) | 18.3 µM (inactive) | > 100 µM (inactive) | 49 µM (inactive) | > 100 µM (inactive) | 72.1 µM | 23.8 µM (inactive) | > 100 µM (inactive) | 50.7 µM (inactive) | 14.2 µM (inactive) | > 100 µM (inactive) | 92.5 µM (inactive)
10 | CC1(c2nc3ccccc3[nH]2)CCC(C(N)=O)C(C)(C)O1 (configuration not stated) | > 100 µM (inactive) | > 100 µM (inactive) | > 100 µM (inactive) | > 100 µM (inactive) | > 100 µM (inactive) | – | > 100 µM (inactive) | > 100 µM (inactive) | > 100 µM (inactive) | > 100 µM (inactive) | > 100 µM (inactive) | > 100 µM (inactive) | > 100 µM (inactive) | > 100 µM | > 100 µM (inactive) | > 100 µM (inactive) | > 100 µM (inactive) | > 100 µM (inactive) | > 100 µM (inactive) | > 100 µM (inactive)
